Results on 24 compounds are retold here after PubChem BioAssay (NCI).

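Grown in 96-well plates, cells were treated for 48 hours with each compound at five concentrations. Insufficient inhibition: endpoint recorded as highest concentration tested. Abbreviation: GI50, concentration required for 50% inhibition of growth. TGI denotes the concentration required for complete inhibition of growth.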 Where only a bound is given, the exact number is not on record here.

The subject of the first experiment is T-47D breast. Description: growth of human tumour cells (NCI), 48 h.
On to `CC[n+]1ccc2c(c1)C(=O)c1nccc3c1c-2nc1ccccc13`, for which the GI50 was 2.2 µM and the TGI came to 9.19 µM.
Take `CCCCCCCCCCCCOC1C(CNCC2OC3OC(C)(C)OC3C2NC(=O)Nc2ccc(C(=O)OCC)cc2)OC2OC(C)(C)OC21` (centres undefined): the GI50 was 2.68 µM and the TGI came out at 7.1 µM.
In the same order, the values of `NNC(=O)c1cnn(-c2ccnc3c(C(F)(F)F)cccc23)c1N` are above 100 µM and above 100 µM.
Turning to `Cc1c(Cl)cccc1Nc1ncccc1C(=O)O`, the GI50 was 68 µM and the TGI was above 100 µM.
For the compound `COc1cc2c(NCCCCCCO[N+](=O)[O-])ncnc2c(OC)c1OC`, the TGI is above 93.2 µM.
As for `COc1ccc(CNC(=O)COc2ccc(/C=N/Nc3nc4ccccc4s3)cc2)cc1`, the GI50 was 1.69 µM and the TGI came out at 5.36 µM.
On to `CC1=C(CCCOC(=O)NCCCl)C2=C(C)C3(CC3)[C@@](C)(O)C(=O)C2=C1`, for which the GI50 is 3.36 µM and the TGI was above 100 µM.
`N#Cc1cnn2ccn(C3OC(COC(=O)c4ccccc4)C(OC(=O)c4ccccc4)C3OC(=O)c3ccccc3)c12` (centres undefined) came in with a TGI of 21.5 µM.
In the case of `OC(c1cccc(C(F)(F)F)c1)c1cnccc1NC1CCCCCC1` (centres undefined), the GI50 is 1.79 µM and the TGI stood at 4.82 µM.
Turning to `N#Cc1c(O)c2c(c(O)c1C#N)C(=O)c1ccccc1C2=O`, the GI50 was 2.71 µM and the TGI worked out at 9.2 µM.
In the same order, the values of `CN=C1NC(=O)/C(=C/c2ccc3ncccc3c2)S1` are 5.24 µM and 24.4 µM.
With `O=C(O)/C=C/C(=O)Nc1ncn[nH]1`, the TGI is above 100 µM.
Same read-out and setting: the result for `CCCNC(=O)OCc1c(COC(=O)NCCC)c(-c2ccc(Cl)c(Cl)c2)n2c1CCC2` reads above 100 µM.
In the case of `ClCc1ccccc1CSc1ncnc2nc[nH]c12`, the GI50 is above 60 µM and the TGI is above 60 µM.
As to `CC1=C2[C@@H](CC1)[C@]1(C)O[C@@](C(C)C)(C[C@H]1OC(=O)[C@H](C)O)[C@H]2OC(=O)/C=C/c1ccccc1`, the GI50 is 5.38 µM and the TGI is 22.4 µM.
With `CN(C)c1ccc2c(c1)oc(=O)c1ccccc12`, the TGI was 28.4 µM.
For the compound `O=C(O)Cc1c[nH]c2ccc(F)cc12`, the TGI is above 100 µM.
On to `CN1CCN(Cc2ccc(NC(=O)c3cncc(C#Cc4cnc(N)c5ccccc45)c3)cc2C(F)(F)F)CC1`, for which the GI50 is 1.01 µM and the TGI was determined as 4.11 µM.
In the case of `NS(=O)(=O)c1ccc(-n2nc(-c3ccc(Br)cc3)ccc2=O)cc1`, the GI50 is above 10 µM and the TGI was above 10 µM.
In the case of `S=C1NCCN1C1=Nc2ccccc2CO1`, the GI50 is 73.5 µM and the TGI was above 100 µM.
Taken in the same sequence, the figures for `COc1ccc(-n2cc(-c3ccc(OC)c(OC)c3)[nH]c2=S)cc1Cl` were above 100 µM and above 100 µM.

A further experiment concerns HS 578T breast. The experiment is described as follows: growth of human tumour cells (NCI), 48 h.
In the case of `CC[n+]1ccc2c(c1)C(=O)c1nccc3c1c-2nc1ccccc13`, the GI50 was 0.955 µM and the TGI was above 10.1 µM.
Taken in the same sequence, the figures for `CCCCCCCCCCCCOC1C(CNCC2OC3OC(C)(C)OC3C2NC(=O)Nc2ccc(C(=O)OCC)cc2)OC2OC(C)(C)OC21` (centres undefined) were 1.67 µM and 3.76 µM.
Taken in the same sequence, the figures for `NNC(=O)c1cnn(-c2ccnc3c(C(F)(F)F)cccc23)c1N` were above 100 µM and above 100 µM.
`Cc1c(Cl)cccc1Nc1ncccc1C(=O)O`: the GI50 is 63.1 µM and the TGI was above 100 µM.
As for `COc1cc2c(NCCCCCCO[N+](=O)[O-])ncnc2c(OC)c1OC`, the TGI was above 87.4 µM.
For the compound `COc1ccc(CNC(=O)COc2ccc(/C=N/Nc3nc4ccccc4s3)cc2)cc1`, the GI50 was 2.24 µM and the TGI worked out at 19.1 µM.
In the same order, the values of `CC1=C(CCCOC(=O)NCCCl)C2=C(C)C3(CC3)[C@@](C)(O)C(=O)C2=C1` are 8.31 µM and 87.4 µM.
Turning to `N#Cc1cnn2ccn(C3OC(COC(=O)c4ccccc4)C(OC(=O)c4ccccc4)C3OC(=O)c3ccccc3)c12` (centres undefined), the TGI is 21.5 µM.
On to `OC(c1cccc(C(F)(F)F)c1)c1cnccc1NC1CCCCCC1` (centres undefined), for which the GI50 was 2.04 µM and the TGI was 5.57 µM.
Taken in the same sequence, the figures for `N#Cc1c(O)c2c(c(O)c1C#N)C(=O)c1ccccc1C2=O` were 1.26 µM and 5.87 µM.
On to `CN=C1NC(=O)/C(=C/c2ccc3ncccc3c2)S1`, for which the GI50 was 6.24 µM and the TGI was above 21 µM.
Consider `O=C(O)/C=C/C(=O)Nc1ncn[nH]1`, for which the TGI was above 100 µM.
For the compound `CCCNC(=O)OCc1c(COC(=O)NCCC)c(-c2ccc(Cl)c(Cl)c2)n2c1CCC2`, the TGI came out at 26.2 µM.
In the case of `COC(=O)[C@@H](C)C[C@H](Cc1ccccc1)NC(=O)c1nc([C@@H](C[C@H](C(C)C)N(C)C(=O)[C@@H](NC(=O)[C@H]2CCCN2C)C(C)C)OC(C)=O)sc1C`, the GI50 is below 0.0025 µM and the TGI is 15.8 µM.
Turning to `ClCc1ccccc1CSc1ncnc2nc[nH]c12`, the GI50 was above 60 µM and the TGI is above 60 µM.
As to `CC1=C2[C@@H](CC1)[C@]1(C)O[C@@](C(C)C)(C[C@H]1OC(=O)[C@H](C)O)[C@H]2OC(=O)/C=C/c1ccccc1`, the GI50 is 0.0529 µM and the TGI stood at 0.378 µM.
With `CN(C)c1ccc2c(c1)oc(=O)c1ccccc12`, the TGI was determined as 97.2 µM.
Regarding `CN1CCN(Cc2ccc(NC(=O)c3cncc(C#Cc4cnc(N)c5ccccc45)c3)cc2C(F)(F)F)CC1`, the GI50 was 0.371 µM and the TGI was 1.18 µM.
In the same order, the values of `NS(=O)(=O)c1ccc(-n2nc(-c3ccc(Br)cc3)ccc2=O)cc1` are above 10 µM and above 10 µM.
Taken in the same sequence, the figures for `COc1ccc(-n2cc(-c3ccc(OC)c(OC)c3)[nH]c2=S)cc1Cl` were 38.9 µM and above 100 µM.
Take `CN(C)S(=O)(=O)Nc1ccccn1`: the TGI is above 100 µM.
Regarding `COc1nc2c(cc1S(=O)(=O)c1ccccc1)CCc1c-2cnn1-c1ccccc1Cl`, the GI50 is 4.7 µM and the TGI is above 100 µM.

In another experiment the test system is PC-3 prostate. Description: growth of human tumour cells (NCI), 48 h.
In the case of `CC[n+]1ccc2c(c1)C(=O)c1nccc3c1c-2nc1ccccc13`, the GI50 was 1.81 µM and the TGI was 16.2 µM.
As for `CCCCCCCCCCCCOC1C(CNCC2OC3OC(C)(C)OC3C2NC(=O)Nc2ccc(C(=O)OCC)cc2)OC2OC(C)(C)OC21` (centres undefined), the GI50 was 2.21 µM and the TGI was found to be 4.39 µM.
Taken in the same sequence, the figures for `NNC(=O)c1cnn(-c2ccnc3c(C(F)(F)F)cccc23)c1N` were above 100 µM and above 100 µM.
For `Cc1c(Cl)cccc1Nc1ncccc1C(=O)O`, the GI50 is 52.3 µM and the TGI is above 100 µM.
`COc1cc2c(NCCCCCCO[N+](=O)[O-])ncnc2c(OC)c1OC` displayed a TGI of 63.4 µM.
For the compound `COc1ccc(CNC(=O)COc2ccc(/C=N/Nc3nc4ccccc4s3)cc2)cc1`, the GI50 is 3.35 µM and the TGI was above 100 µM.
Taken in the same sequence, the figures for `CC1=C(CCCOC(=O)NCCCl)C2=C(C)C3(CC3)[C@@](C)(O)C(=O)C2=C1` were 4.01 µM and above 100 µM.
On to `N#Cc1cnn2ccn(C3OC(COC(=O)c4ccccc4)C(OC(=O)c4ccccc4)C3OC(=O)c3ccccc3)c12` (centres undefined), for which the TGI turned out to be 21.5 µM.
For the compound `OC(c1cccc(C(F)(F)F)c1)c1cnccc1NC1CCCCCC1` (centres undefined), the GI50 was 1.53 µM and the TGI stood at 4.65 µM.
Taken in the same sequence, the figures for `N#Cc1c(O)c2c(c(O)c1C#N)C(=O)c1ccccc1C2=O` were 1.57 µM and 7.01 µM.
In the same order, the values of `CN=C1NC(=O)/C(=C/c2ccc3ncccc3c2)S1` are 13.8 µM and above 25 µM.
As for `O=C(O)/C=C/C(=O)Nc1ncn[nH]1`, the TGI was above 100 µM.
On the same count and under the same terms, the result for `CCCNC(=O)OCc1c(COC(=O)NCCC)c(-c2ccc(Cl)c(Cl)c2)n2c1CCC2` reads 28.4 µM.
On to `COC(=O)[C@@H](C)C[C@H](Cc1ccccc1)NC(=O)c1nc([C@@H](C[C@H](C(C)C)N(C)C(=O)[C@@H](NC(=O)[C@H]2CCCN2C)C(C)C)OC(C)=O)sc1C`, for which the GI50 was below 0.0025 µM and the TGI is above 25 µM.
In the same order, the values of `ClCc1ccccc1CSc1ncnc2nc[nH]c12` are above 60 µM and above 60 µM.
Taken in the same sequence, the figures for `CC1=C2[C@@H](CC1)[C@]1(C)O[C@@](C(C)C)(C[C@H]1OC(=O)[C@H](C)O)[C@H]2OC(=O)/C=C/c1ccccc1` were 4.46 µM and 19.1 µM.
The compound `CN(C)c1ccc2c(c1)oc(=O)c1ccccc12` yielded a TGI of 30.5 µM.
For the compound `O=C(O)Cc1c[nH]c2ccc(F)cc12`, the TGI was above 100 µM.
With `CN1CCN(Cc2ccc(NC(=O)c3cncc(C#Cc4cnc(N)c5ccccc45)c3)cc2C(F)(F)F)CC1`, the GI50 was 0.442 µM and the TGI stood at 1.36 µM.
As to `NS(=O)(=O)c1ccc(-n2nc(-c3ccc(Br)cc3)ccc2=O)cc1`, the GI50 is above 10 µM and the TGI was above 10 µM.
With `S=C1NCCN1C1=Nc2ccccc2CO1`, the GI50 was above 100 µM and the TGI is above 100 µM.
Take `COc1ccc(-n2cc(-c3ccc(OC)c(OC)c3)[nH]c2=S)cc1Cl`: the GI50 was above 100 µM and the TGI was above 100 µM.
`CN(C)S(=O)(=O)Nc1ccccn1` displayed a TGI above 100 µM.
For `COc1nc2c(cc1S(=O)(=O)c1ccccc1)CCc1c-2cnn1-c1ccccc1Cl`, the GI50 is 3.09 µM and the TGI was above 100 µM.

The test system of another experiment is MCF7 breast. Description: growth of human tumour cells (NCI), 48 h.
Turning to `CC[n+]1ccc2c(c1)C(=O)c1nccc3c1c-2nc1ccccc13`, the GI50 was 0.587 µM and the TGI is 4.84 µM.
In the case of `CCCCCCCCCCCCOC1C(CNCC2OC3OC(C)(C)OC3C2NC(=O)Nc2ccc(C(=O)OCC)cc2)OC2OC(C)(C)OC21` (centres undefined), the GI50 is 1.35 µM and the TGI was 2.92 µM.
Taken in the same sequence, the figures for `NNC(=O)c1cnn(-c2ccnc3c(C(F)(F)F)cccc23)c1N` were above 100 µM and above 100 µM.
For the compound `Cc1c(Cl)cccc1Nc1ncccc1C(=O)O`, the GI50 was above 100 µM and the TGI was above 100 µM.
For `COc1cc2c(NCCCCCCO[N+](=O)[O-])ncnc2c(OC)c1OC`, the TGI was determined as 71.4 µM.
`COc1ccc(CNC(=O)COc2ccc(/C=N/Nc3nc4ccccc4s3)cc2)cc1`: the GI50 was 3.52 µM and the TGI amounted to 27.5 µM.
Turning to `CC1=C(CCCOC(=O)NCCCl)C2=C(C)C3(CC3)[C@@](C)(O)C(=O)C2=C1`, the GI50 is 2.24 µM and the TGI was above 100 µM.
In the case of `N#Cc1cnn2ccn(C3OC(COC(=O)c4ccccc4)C(OC(=O)c4ccccc4)C3OC(=O)c3ccccc3)c12` (centres undefined), the TGI was above 46.4 µM.
`OC(c1cccc(C(F)(F)F)c1)c1cnccc1NC1CCCCCC1` (centres undefined): the GI50 was 1.66 µM and the TGI came out at 3.51 µM.
Regarding `N#Cc1c(O)c2c(c(O)c1C#N)C(=O)c1ccccc1C2=O`, the GI50 is 1.46 µM and the TGI came to 3.76 µM.
Regarding `CN=C1NC(=O)/C(=C/c2ccc3ncccc3c2)S1`, the GI50 was 6.21 µM and the TGI is above 25 µM.
`O=C(O)/C=C/C(=O)Nc1ncn[nH]1` gave a TGI above 100 µM.
For the compound `CCCNC(=O)OCc1c(COC(=O)NCCC)c(-c2ccc(Cl)c(Cl)c2)n2c1CCC2`, the TGI stood at 19.8 µM.
For `COC(=O)[C@@H](C)C[C@H](Cc1ccccc1)NC(=O)c1nc([C@@H](C[C@H](C(C)C)N(C)C(=O)[C@@H](NC(=O)[C@H]2CCCN2C)C(C)C)OC(C)=O)sc1C`, the GI50 was below 0.0025 µM and the TGI was above 25 µM.
